The values below come from a melting point compilation (Tetko et al.; mined from patent text by program, amines drawn as free bases though some values may be those of a salt).

For `CN1Cc2c(C#CCO)ncn2-c2ccccc2C1=O`, the melting point fell in the range of 240 to 241 °C.

On to `CCOC(=O)c1ccc(CC#N)cc1Cl`, for which the melting point worked out at 60 °C. `Cc1oncc1CN1C(=O)C2(COc3cc4c(cc32)OCO4)c2ccccc21` (stereo not given) returned a melting point of 159 to 161 °C. Compound `CCOC(=O)C[C@H]1c2ccc(OC)cc2CC[C@H]1c1ccc(OC)cc1` (racemic) showed a melting point of 81 °C. `O=C(Nc1ccc2c(c1)CS(=O)(=O)N2)C(=O)N1CCC(Cc2ccc(F)cc2)CC1` yielded a melting point of 183 to 184 °C.

Consider `Clc1ccccc1C(Oc1ccccc1)C1CNCCO1` (stereo not given), for which the melting point lay within 80 to 102 °C.

As to `O=c1c(O)c(-c2ccoc2)oc2ccccc12`, the melting point was in the range of 165 to 166 °C. Take `Oc1cc(O)cc(-c2ccccc2)c1`: the melting point is 157 to 158 °C. The compound `O=C(N[C@H]1CCCNC1=O)c1cccc(F)c1F` displayed a melting point of 160 to 162 °C. `CC(C)(C)NC(=O)[C@@H]1C[C@H](F)CN1C(=O)[C@@H](O)[C@H](Cc1ccccc1)NC(=O)[C@H](CC(N)=O)NC(=O)OCc1ccccc1` registered a melting point of 95 to 100 °C.

`Cc1csc2ncc(C(O)CCCCc3ccccc3)n12` (stereo not given): the melting point lay within 120 to 121 °C. For `CC(=O)Nc1cccc(OCCCCC(=O)O)c1C=O`, the melting point was 119 to 121 °C. As to `COC(=O)/C(C#N)=C/c1ccccc1`, the melting point lay in the range of 90 to 91 °C. Under `CN(C)n1c(NN)nc2ccccc2c1=O` stands 125 to 127 °C; under `CC1(C)Cc2ccc(C(F)(F)F)c(C#N)c2O1`, 79 to 83 °C; under `O=C1C(O)OCN1c1ccc(Cl)c(Br)c1` (stereo not given), 139 to 140 °C. `N#CC(C#N)=C(NC1CCN(Cc2ccccc2)CC1)NC1CCN(Cc2ccccc2)CC1` had a melting point of 147 to 148 °C. `CCCCc1ncc(C(=O)OC)c(=O)n1Cc1ccc(-c2ccccc2C(=O)O)cc1` yielded a melting point of 166 to 168 °C. In turn, `COc1ccccc1N1CCN(CCn2c(=O)[nH]c3ccsc3c2=O)CC1` gave a melting point of 222 to 223 °C. Compound `NC(=O)C1(c2ccccc2)CCN(Cc2ccccc2)C1` (stereo not given) gave a melting point of 88 to 90 °C. Turning to `CN(C)C(=O)n1nc(N(C)C)c2ccc(Cl)cc21`, the melting point was 65 to 66 °C. Next, `COc1ccc2c(c1)c(-c1cc3cccnc3[nH]1)cn2C`: 226 to 227 °C; `Nc1sc2c(c1C(=O)c1ccc3ccccc3c1)CCC(Cc1ccccc1)C2` (stereo not given): 69 to 70 °C.

`CCOC(=O)c1ccnc(OCc2nc(-c3ccco3)oc2C)c1`: the melting point is 80 to 81 °C. Under `CC(=O)Nc1ccc(C(=O)Nc2ccccc2NC(=O)CN)cc1` stands 215 to 218 °C; under `CSCCN1C(=O)c2ccccc2Oc2nc(Cl)ccc21`, 126 to 128 °C; under `COc1ccccc1CNc1cc(C(N)=O)c([N+](=O)[O-])cc1[N+](=O)[O-]`, 198 to 202 °C. Compound `CCS(=O)c1ccc(N2CC(CNC(C)=S)OC2=O)cc1F` (stereo not given) displayed a melting point of 138 to 139 °C. Next, `COc1ccccc1OC(=O)c1cnoc1C`: 108 to 111 °C. Under `COc1c2c(c(OC)c(OC)c1OC)CC(CCCCCCCCNC(C)=O)C2` stands 57 to 61 °C; under `CC(C)CC(=O)c1cc(-c2ccccc2)no1`, 62 to 64 °C.

`CC(C)(C)c1ccc2cc3cc(C(C)(C)C)ccc3cc2c1` had a melting point of 249 to 253 °C. On to `O=c1[nH]c2cc(N3CCCC3)c(F)cc2c(=O)n1O`, for which the melting point was over 250 °C.

`CN(Cc1ccc(N)cc1)C1CCOCC1`: the melting point was 93 to 94 °C. For `O=C(O)/C=C/C=C(c1cccc(F)c1)c1cccc(F)c1`, the melting point lay in the range of 142 to 143 °C. For the compound `O=C(CCl)Nc1ccc2c(c1NC(=O)c1ccccc1)C(=O)c1ccccc1C2=O`, the melting point is 203 to 204 °C.

Compound `NS(=O)(=O)c1ccc(-n2nc(C(F)(F)F)c3c2-c2ccccc2CC3)cc1` came in with a melting point of 257 to 258 °C.

`Cc1nn(-c2cc(CC(Cl)C(=O)NC3CC3)c(Cl)cc2Cl)c(=O)n1C(F)F` (stereo not given) returned a melting point of 139 to 143 °C. Compound `Cc1cccc2c(=O)n(C3CCC(=O)NC3=O)cnc12` (stereo not given) yielded a melting point of 290 to 292 °C. Consider `CCCCOC(=O)C(c1ccc(O)c(C(C)(C)C)c1)c1ccc(O)c(C(C)(C)C)c1`, for which the melting point was 124 °C.

Compound `O=C(O)COc1ccc(-c2ccccc2OC2OC(CO)C(O)C(O)C2O)cc1` (stereo not given) returned a melting point of 145 to 146 °C. As for `NC(Cc1ccccc1)C(O)C1=NCCS1` (mixture of isomers), the melting point is 82.3 to 90 °C. Next, `O=C(c1ccc(Cl)cc1)c1ccc(-n2ccnc2)nc1`: 155 to 156 °C; `COCCc1nc2c(N)nc3ccccc3c2n1CCCNS(C)(=O)=O`: 193 to 194 °C. Compound `CN(C)c1ccc2c(c1)C(=O)CC(c1ccc(OCc3ccccc3)cc1)=N2` showed a melting point of 283 to 285 °C. The compound `CCCCCCCCCCCCCCCCC(C(=O)OC)S(C)=O` (stereo not given) showed a melting point of 56 to 57 °C.

Take `N#Cc1ccc(N(Cc2ccc(OCc3ccccc3)cc2)n2cncn2)cc1-c1ccccc1`: the melting point lay within 112 to 113 °C. `COc1cc(COc2nn(Cc3ccc(Oc4ccccc4)cc3)cc2C(N)=O)ccc1OCc1nc(-c2ccco2)oc1C` had a melting point of 105 to 106 °C. Next, `CC1(C)CC(=O)C(C(=O)Nc2ccc(C(F)(F)F)cc2)C(=O)O1` (stereo not given): 176 °C; `O=C(O)c1cn(CCc2cccc(C(F)(F)F)c2)c2cc(C3CC3)nn2c1=O`: 200 to 205 °C; `Cc1[nH]cnc1CSCCNC(=N)NCCCc1c[nH]cn1`: 128 to 131 °C. Compound `CCP(=O)(O)CCCN` showed a melting point of 233 to 239 °C. Next, `CCc1nnc2c(NC(C)C)nc3ccccc3n12`: 222 to 224 °C; `CC(C)(C)NS(=O)(=O)c1ccccc1-c1ccc(NC(=O)C(=O)O)cc1`: 159 °C. In the case of `COC(=O)c1ccc(O)c(C(C)(C)C)c1`, the melting point was in the range of 144 to 145 °C.

The compound `C#CCN(c1ccc(C(=O)NC(CCCCC(=O)O)C(=O)O)cc1)C1CCc2cc3nc(C)[nH]c(=O)c3cc21` (mixture of isomers) had a melting point of 165 °C. `CCCCCS(=O)(=O)NC(=O)/C=C/c1cc(OC(C)C)nn1Cc1ccc(C(F)(F)F)cc1Cl` returned a melting point of 139 to 140 °C. `CCCCCC(=O)Nc1nc2cc(Cl)ccc2nc1NC(=O)CC` returned a melting point of 158 to 160 °C.

`Cc1ccc(C(=O)N(C)C)cc1-c1nc(NCCNC(C)C)nc2c1CNC(=O)N2c1c(F)cccc1F`: the melting point was 130 to 133 °C.

`CCC(Oc1ccccc1)c1nnc(NC(=O)N(C)CC(OC)OC)s1` (stereo not given) displayed a melting point of 84 to 85 °C. Compound `OC(CN1CC=C(c2ccc(Cl)cc2)CC1)c1ccc(Cl)cc1` (stereo not given) returned a melting point of 152 to 153 °C. In turn, `CONC(=O)C(Oc1cc(OCc2ccsc2)ccc1C#N)c1ccccc1C` (racemic) registered a melting point of 155 to 156 °C.

The compound `CC(=O)N1C=C(c2ccccc2)NC(=O)C1C(C)C` (racemic) had a melting point of 182 to 185 °C.

`CC(=O)c1c(C)nc2ccccc2c1NCc1cccc(Br)c1` registered a melting point of 109 °C. Under `c1cnn(Cc2ccc3c(c2)-c2[nH]nc(-c4ccsc4)c2C3)c1` stands 245 to 247 °C. On to `CC1(C)Oc2cc3c(cc2O1)OC(C)(C)O3`, for which the melting point came out at 122 °C. Next, `COc1ccccc1Nc1nc(-c2ccccn2)cs1`: 165 to 166 °C; `Clc1ccc(CNc2nc(-c3nccc4ccccc34)nc3ccccc23)cc1`: 221 to 224 °C; `COC(CCl)NC(=O)c1ccccc1` (stereo not given): 76.9 to 77.7 °C. `Nc1cc(OCC2CCCCO2)c(C(=O)O)cc1Cl` (stereo not given) showed a melting point of 146 to 148 °C. Under `COc1cc2cc([N+](=O)[O-])c(OCc3ccccc3)cc2oc1=O` stands 226 to 228 °C; under `COCCOCCn1cc(C(=O)NCc2ccc(Cl)cc2)c(=O)c2cc(CSC)ccc21`, 154 to 155 °C; under `CC(C)c1ccc(-c2nc(-c3cccc(C(=O)O)c3)ns2)cc1`, 165 to 167 °C. Compound `COc1cc(N2CCN(Cc3ccccc3)CC2)c2nccc(C)c2c1` came in with a melting point of 154 to 155 °C.

For `CN(C(=O)OC(C)(C)C)c1cc(Sc2ccc(O)cc2)ccc1N`, the melting point lay in the range of 62 to 67 °C. On to `Brc1cccc(C2Cc3cnc(Nc4ccc(CCNc5ccccc5)cc4)nc3-c3ccccc32)c1` (stereo not given), for which the melting point lay in the range of 92 to 94 °C. As for `Cc1ccc2c(=O)n3ccsc3nc2c1`, the melting point lay in the range of 174 to 178 °C. Next, `N#CC1=Cc2ccccc2C(N2CCN(N=Cc3ccccn3)CC2)c2ccccc21` (stereo not given): 182 to 184 °C; `COCC(=O)Nc1cccc(-n2nc(OC)c(=O)n(Cc3ccc(Cl)cc3)c2=O)c1`: 143 °C. Next, `COc1ccc(C(=O)Nc2ccccc2C(c2ccc(O)cc2)c2ccc(O)cc2)cc1`: 154 to 156 °C; `NCC(O)c1ccc(C(F)(F)F)cc1` (stereo not given): 138 to 140 °C; `COc1ccc(-c2cncc(OC3SCC(O)C(O)C3O)c2)cn1` (stereo not given): 189 °C. For the compound `CN1CCN(c2ccc(-c3cnc4c(c3)N(S(=O)(=O)c3ccccc3Cl)CCN4)cn2)CC1`, the melting point is 164 to 165 °C. Take `CCCn1nc2c(N)nc3c(c2c1CCCCO)CCCC3`: the melting point was in the range of 194 to 200 °C. Turning to `O=Cc1ccc(-c2noc(-c3ccc(C(F)(F)F)cc3)n2)cc1`, the melting point lay within 145 to 146 °C. The compound `NC(=O)c1ccc(F)c2c1C=C([N+](=O)[O-])CO2` registered a melting point of 225 to 227 °C. `CCCCc1nc2cccc(CC#N)c2n1Cc1ccc(-c2ccccc2C#N)cc1`: the melting point lay within 180 to 181 °C. With `OCCc1ccc(COc2cccc(-c3c(-c4ccccc4)cnc4c(C(F)(F)F)cccc34)c2)cc1`, the melting point amounted to 50 °C. As for `O=Cc1c(OCCCCC(=O)O)ccc(C(=O)O)c1O`, the melting point was 165 to 166 °C. For `O=C(O)Cc1ccc(C(=O)O)cc1Sc1ccc(F)cc1`, the melting point was in the range of 218 to 221 °C.
